Measurements reported in patent US20250368678A1, “19-NOR-C3,3-DISUBSTITUTED C21-AZACYCLO-S[…] AND METHOD FOR USING SAME” (SHANDONG LUYE PHARMACEUTICAL CO., LTD., priority 2022, published 2025).

Tests used:
[1] = target: T1, α4β3δ GABA receptors (α4β3δ-HEK-FlpIn-TRex stable cell strain) (Homo sapiens, UniProt P28472+P48169); assay: Whole-cell patch clamp, extrasynaptic functional activity (positive allosteric regulation of GABA-induced current); assay type: cell-based; conditions: patch clamp -60 mV, GABA at EC10-20, α4β3δ-HEK-FlpIn-TRex cells
T1 construct: expressed in transfected cells
T1 sequence (P48169 36-554): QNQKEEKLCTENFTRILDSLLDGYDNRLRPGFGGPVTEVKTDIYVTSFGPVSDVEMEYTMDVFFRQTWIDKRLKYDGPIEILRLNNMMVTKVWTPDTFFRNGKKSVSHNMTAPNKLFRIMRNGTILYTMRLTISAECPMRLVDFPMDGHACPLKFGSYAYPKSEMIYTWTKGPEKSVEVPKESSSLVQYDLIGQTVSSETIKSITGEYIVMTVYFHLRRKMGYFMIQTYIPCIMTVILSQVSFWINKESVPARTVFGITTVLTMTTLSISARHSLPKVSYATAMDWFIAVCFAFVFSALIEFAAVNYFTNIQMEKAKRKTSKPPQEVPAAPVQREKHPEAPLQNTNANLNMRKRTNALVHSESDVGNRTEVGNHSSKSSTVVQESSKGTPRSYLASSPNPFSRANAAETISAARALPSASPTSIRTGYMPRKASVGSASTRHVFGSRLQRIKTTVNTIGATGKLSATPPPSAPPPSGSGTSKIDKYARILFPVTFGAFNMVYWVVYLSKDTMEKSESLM
T1 sequence (P28472 26-473): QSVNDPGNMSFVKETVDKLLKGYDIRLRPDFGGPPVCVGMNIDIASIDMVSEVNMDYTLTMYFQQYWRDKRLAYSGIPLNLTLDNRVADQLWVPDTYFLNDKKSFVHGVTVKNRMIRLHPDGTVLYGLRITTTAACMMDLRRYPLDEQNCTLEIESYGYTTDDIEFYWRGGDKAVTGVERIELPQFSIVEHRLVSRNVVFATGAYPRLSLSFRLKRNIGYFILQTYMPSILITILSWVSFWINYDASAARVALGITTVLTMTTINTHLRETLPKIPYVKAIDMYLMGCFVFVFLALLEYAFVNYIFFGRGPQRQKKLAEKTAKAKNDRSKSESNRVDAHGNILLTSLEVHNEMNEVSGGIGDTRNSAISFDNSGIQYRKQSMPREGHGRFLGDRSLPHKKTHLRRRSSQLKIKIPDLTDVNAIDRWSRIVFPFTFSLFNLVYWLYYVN
T1 sequence (O14764 25-452 partner): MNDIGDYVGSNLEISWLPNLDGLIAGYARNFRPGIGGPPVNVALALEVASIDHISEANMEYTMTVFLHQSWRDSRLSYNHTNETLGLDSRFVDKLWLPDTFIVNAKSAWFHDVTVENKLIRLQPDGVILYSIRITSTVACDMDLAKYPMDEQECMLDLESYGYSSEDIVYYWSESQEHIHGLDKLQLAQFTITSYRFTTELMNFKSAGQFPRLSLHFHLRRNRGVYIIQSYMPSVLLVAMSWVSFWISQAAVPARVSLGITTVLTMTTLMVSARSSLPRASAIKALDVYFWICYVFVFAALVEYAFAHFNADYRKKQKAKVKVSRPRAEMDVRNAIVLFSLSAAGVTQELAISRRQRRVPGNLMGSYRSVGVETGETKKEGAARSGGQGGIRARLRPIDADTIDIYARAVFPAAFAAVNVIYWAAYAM
Experimental: (§1) The α4β3δ-HEK-FlpIn-TRex stable cell strain was cultured in DMEM+10% FBS complete culture medium, with the selective antibiotics being 10 μg/mL Blasticidin, 100 µg/mL Zeocin, 100 µg/mL Hygromycin, and 0.2 μg/mL Puromycin. The α1β2γ2-CHO-TRex stable cell strain was cultured in DMEM/F12+10% FBS complete culture medium, with the selective antibiotics being 10 μg/mL Blasticidin, 100 μg/mL Zeocin, 300 μg/mL Hygromycin, and […] Puromycin.
(§2) The day before the patch clamp experiment, cells were seeded onto 12 mm polylysine-coated coverslips and then cultured in 35 mm culture dishes, and tetracycline ([…]) was added to induce the expression of GABA receptors. The extracellular fluid had the following composition (in mM): 140 NaCl, 3 KCl, 1.5 MgCl2, 2 CaCl2, 10 HEPES, and 10 Glucose. After thorough mixing, NaOH was added to adjust the pH to 7.4, and sucrose was added to adjust the osmotic pressure to 300-320 mOsm. The fluid was stored at 4° C. The electrode internal solution had the following composition (in mM): 145 KCl, 1 MgCl2, 5 EGTA, 10 HEPES, and 5 MgATP. After thorough mixing, KOH was added to adjust the pH to 7.3, and sucrose was added to adjust the osmotic pressure to 290-300 mOsm. The solution was filtered through a […] before use.
(§3) Whole-cell patch clamp recording was mainly employed in this experiment. The membrane potential was clamped at −60 mV, and receptors were activated using GABA at an EC10-20 concentration ([…]). The test compounds were dissolved in 0.1% DMSO, and perfusion was performed for 30 s prior to GABA stimulation. Finally, the positive allosteric regulating effects of the test compounds on α1β2γ2 or α4β3δ were determined.
(§4) The experimental result for each concentration was expressed as a fold increase in the GABA-induced current caused by the compound. […] At least 5 concentrations are tested to obtain a complete EC50 curve and EC50 values. All experiments were repeated on no less than 3 cells, and data processing was completed using GraphPad prism software. The dose-response curves were fitted using the Hill equation, and the half-maximal activating concentration EC50 and Emax were finally obtained.

[2] = In vitro liver microsomal stability assay, human; assay type: in vitro ADME; conditions: for CLint scaled at 1 µM / half-life at 1 µM / microsomal CLint at 1 µM / T1/2: Human liver microsomes; for Remaining amount % at 60 min: Human liver microsomes 0.5 mg/mL, NADPH; for microsomal CLint at 1 µM: read-out: CLint(mic)
Experimental: (§5) 1) Preparation of working solutions of test samples: The test samples were diluted with acetonitrile to 100 M.
(§6) 2) Preparation of a working solution of liver microsomes: liver microsomes were diluted with 100 mM phosphate-buffered saline to 0.56 mg/mL.
(§7) 3) Preparation of a working solution of reduced nicotinamide adenine dinucleotide (NADPH): A proper amount of NADPH was weighed out and diluted with phosphate-buffered saline to 20 mM, and an equal volume of a 60 mM MgCl2 solution was added.
(§8) 4) Preparation of a stop solution: Tolbutamide was diluted with acetonitrile to 20 ng/mL, serving as a stop solution containing an internal standard.
(§9) 1) Incubation anti-adsorption EP tubes were prepared and labeled with species, test/control sample, time points (0, 5, 10, 20, 30, 60 min, Blank60, and NCF60), etc.
(§10) 2) 2 L of test or control sample working solution, diluted with acetonitrile to 100 M, and 178 L of liver microsome working solution were added to each tube. For the Blank60 tube, 2 L of acetonitrile was added instead of a test sample. The tubes were pre-incubated in a 37° C. water bath for about 10 min, with each sample tested in triplicate.
(§11) 3) After the pre-incubation was complete, 20 L of NADPH working solution was added to each tube except for the 0 min and NCF60 tubes to start reactions, and 20 L of phosphate-buffered saline (containing 30 mM MgCl2) was added to the NCF60 tube. In the incubation system, the final concentrations of the test and control samples were 1 M, the final concentration of liver microsomes was 0.5 mg/mL, the final concentration of NADPH was 1 mM, and the final concentration of MgCl2 was 3 mM.
(§12) 4) For the 0 min sample, 600 L of stop solution was added before adding the NADPH working solution. After each sample was incubated for its respective time, 600 L of stop solution was added to stop the reaction.
(§13) 5) After the reaction was stopped, each sample was vortexed for 30 s and then centrifuged at 13,500 rpm for 10 min. 100 L of the supernatant was transferred to an EP tube, and 100 L Milli-Q water was added. The mixture was well mixed by vortexing and analyzed by LC-MS/MS.
(§14) 6) Testosterone and dextromethorphan were used as positive control samples under the same conditions to assess the stability and reliability of the system.
(§15) Parameters of the test samples, including their half-lives, intrinsic clearance rates in liver microsomes, and hepatic intrinsic clearance rates, were calculated based on the percentage of test sample remaining.

[3] = In vitro liver microsomal stability assay, rat; assay type: in vitro ADME; conditions: for CLint scaled at 1 µM / half-life at 1 µM / microsomal CLint at 1 µM / T1/2: Rat liver microsomes; for Remaining amount % at 60 min: Rat liver microsomes 0.5 mg/mL, NADPH; for microsomal CLint at 1 µM: read-out: CLint(mic)
Experimental: as §5, §6, §7, §8, §9, §10, §11, §12, §13, §14, §15

[4] = target: T2, α1β2γ2 GABA receptors (α1β2γ2-CHO-TRex stable cell strain) (Homo sapiens, UniProt P14867+P47870); assay: Whole-cell patch clamp, intrasynaptic functional activity (positive allosteric regulation of GABA-induced current); assay type: cell-based; conditions: patch clamp -60 mV, GABA at EC10-20, α1β2γ2-CHO-TRex cells
T2 construct: expressed in transfected cells
T2 sequence (P14867 28-456): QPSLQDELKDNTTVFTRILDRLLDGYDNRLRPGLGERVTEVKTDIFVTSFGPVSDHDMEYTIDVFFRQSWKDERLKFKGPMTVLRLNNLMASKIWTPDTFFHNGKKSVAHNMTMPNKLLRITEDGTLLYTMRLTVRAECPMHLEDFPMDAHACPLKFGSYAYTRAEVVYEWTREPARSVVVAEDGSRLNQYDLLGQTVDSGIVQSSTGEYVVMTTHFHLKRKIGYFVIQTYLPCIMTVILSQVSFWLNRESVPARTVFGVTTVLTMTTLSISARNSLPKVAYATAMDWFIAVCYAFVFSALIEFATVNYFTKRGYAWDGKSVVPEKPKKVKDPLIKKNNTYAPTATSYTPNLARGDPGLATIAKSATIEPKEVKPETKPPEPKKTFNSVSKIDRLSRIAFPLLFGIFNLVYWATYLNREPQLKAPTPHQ
T2 sequence (P47870 25-512 limits assumed): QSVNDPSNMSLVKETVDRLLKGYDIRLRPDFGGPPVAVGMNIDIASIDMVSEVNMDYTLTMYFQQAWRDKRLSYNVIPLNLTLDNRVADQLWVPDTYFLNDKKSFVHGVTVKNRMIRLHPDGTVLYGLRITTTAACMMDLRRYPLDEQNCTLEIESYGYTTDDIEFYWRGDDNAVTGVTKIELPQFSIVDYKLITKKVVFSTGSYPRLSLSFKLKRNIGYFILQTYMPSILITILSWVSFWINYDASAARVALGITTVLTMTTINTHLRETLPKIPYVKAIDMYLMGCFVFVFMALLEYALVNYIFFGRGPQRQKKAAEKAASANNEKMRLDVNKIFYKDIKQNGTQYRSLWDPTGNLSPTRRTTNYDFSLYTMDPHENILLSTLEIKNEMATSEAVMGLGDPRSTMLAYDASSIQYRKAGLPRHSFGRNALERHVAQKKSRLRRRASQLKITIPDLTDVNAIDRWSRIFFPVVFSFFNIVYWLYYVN
T2 sequence (P18507 40-475 partner): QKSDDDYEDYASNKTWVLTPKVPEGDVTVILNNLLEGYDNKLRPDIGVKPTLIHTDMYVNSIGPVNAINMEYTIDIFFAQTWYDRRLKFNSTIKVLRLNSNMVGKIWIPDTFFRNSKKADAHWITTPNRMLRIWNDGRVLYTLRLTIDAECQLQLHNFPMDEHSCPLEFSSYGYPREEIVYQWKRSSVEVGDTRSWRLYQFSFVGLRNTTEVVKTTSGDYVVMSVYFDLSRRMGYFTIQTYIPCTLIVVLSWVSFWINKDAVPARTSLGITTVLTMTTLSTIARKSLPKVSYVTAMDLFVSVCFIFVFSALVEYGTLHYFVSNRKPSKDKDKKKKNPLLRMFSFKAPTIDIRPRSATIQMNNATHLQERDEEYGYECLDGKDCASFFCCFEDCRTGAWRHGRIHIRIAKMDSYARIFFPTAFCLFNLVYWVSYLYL
Experimental: as §1, §2, §3, §4

Row | Compound | EC50 [1] [nM] | Emax [1] [%] | CLint scaled at 1 µM [2] [mL/min/kg] | half-life at 1 µM [2] [min] | Remaining amount % at 60 min [2] [%] | microsomal CLint at 1 µM [2] [µL/min/mg] | CLint scaled at 1 µM [3] [mL/min/kg] | half-life at 1 µM [3] [min] | Remaining amount % at 60 min [3] [%] | microsomal CLint at 1 µM [3] [µL/min/mg] | EC50 [4] [nM] | Emax [4] [%] | T1/2 [2] [min] | T1/2 [3] [min]
1 | C[C@@]1(O)CC[C@H]2[C@H](CC[C@@H]3[C@@H]2CC[C@]2(C)[C@@H](C(=O)Cn4cnn(C5CCCC5)c4=O)CC[C@@H]32)C1 [Compound 29] | 203 | 830 | 60 | 20.7 | 45.8 | 67 | 64 | 38.7 | 36.8 | 36 | 192 | 691 |  | 
2 | C[C@@]1(O)CC[C@H]2[C@H](CC[C@@H]3[C@@H]2CC[C@]2(C)[C@@H](C(=O)Cn4ccn(-c5cccc(F)c5)c4=O)CC[C@@H]32)C1 [Compound 11] | 139 | 552 | 63 | 19.8 | 28.02 | 70 | 276 | 9 | 9.24 | 153 | 241 | 594 |  | 
3 | C[C@@]1(O)CC[C@H]2[C@H](CC[C@@H]3[C@@H]2CC[C@]2(C)[C@@H](C(=O)Cn4cnn(-c5cc(F)ccc5F)c4=O)CC[C@@H]32)C1 [Compound 24] | 79 | 743 | 17 | 71.4 | 56.1 | 19 | 118 | 21.1 | 14.7 | 66 | 340 | 347 |  | 
4 | C[C@@]1(O)CC[C@H]2[C@H](CC[C@@H]3[C@@H]2CC[C@]2(C)[C@@H](C(=O)Cn4cnn(-c5cccc(C#N)c5)c4=O)CC[C@@H]32)C1 [Compound 34] | 50 | 683 | 7 | 178 | 79.9 | 8 | 98 | 25.6 | 20.5 | 54 | 112 |  |  | 
5 | C[C@@]1(O)CC[C@H]2[C@H](CC[C@@H]3[C@@H]2CC[C@]2(C)[C@@H](C(=O)Cn4cnn(-c5cccc(N)c5)c4=O)CC[C@@H]32)C1 [Compound 22] | 213 |  | 320 | 7.8 | 8.6 | 178 | 146 | 17.1 | 8.9 | 81 | 349 | 786 |  | 
6 | COc1ccc(-n2ncn(CC(=O)[C@H]3CC[C@H]4[C@@H]5CC[C@@H]6C[C@](C)(O)CC[C@@H]6[C@H]5CC[C@]34C)c2=O)cn1 [Compound 17] |  | 474 | 17 |  | 57.7 | 19 | 161 |  | 6.6 | 90 |  | 389 | 72.9 | 15.5
7 | C[C@@]1(O)CC[C@H]2[C@H](CC[C@@H]3[C@@H]2CC[C@]2(C)[C@@H](C(=O)Cn4cnn(-c5cc(Cl)ccn5)c4=O)CC[C@@H]32)C1 [Compound 26] |  | 589 | 18 |  | 53.7 | 20 | 120 |  | 12.7 | 67 |  | 624 | 68.6 | 20.8
8 | C[C@@]1(O)CC[C@H]2[C@H](CC[C@@H]3[C@@H]2CC[C@]2(C)[C@@H](C(=O)Cn4cnn(-c5cccc(F)c5F)c4=O)CC[C@@H]32)C1 [Compound 27] | 42 | 526 | 14 | 91.2 | 64.13 | 15 | 122 | 20.4 | 14.60 | 68 | 126 | 445 |  | 
9 | COCCn1ncn(CC(=O)[C@H]2CC[C@H]3[C@@H]4CC[C@@H]5C[C@](C)(O)CC[C@@H]5[C@H]4CC[C@]23C)c1=O [Compound 31] |  | 609 | 37 | 34.1 | 28.5 | 41 | 234 | 10.7 | 2.1 | 130 |  | 735 |  | 
10 | C[C@@]1(O)CC[C@H]2[C@H](CC[C@@H]3[C@@H]2CC[C@]2(C)[C@@H](C(=O)Cn4cnn(-c5ccc(F)cc5)c4=O)CC[C@@H]32)C1 [Compound 4] | 170 | 410 | 13 | 96.3 | 64.0 | 14 | 93 | 27 | 37.09 | 51 | 220 | 390 |  | 
